Laboratory results from paper PMC6152084, “Synthesis of New Hydrazone Derivatives for MAO Enzymes Inhibitory Activity” (Molecules : A Journal of Synthetic Chemistry and Natural …, 2017).
Marks after values point to notes of the source that are not given here.

Key:
[1] = system: Salmonella typhimurium TA98; assay: Ames MPF genotoxicity test, TA98; assay type: cell-based; details: for mutagenicity classification against TA98: in the presence and absence of metabolic activation (S9)
Method: An Ames MPF assay was performed to investigate the genotoxicity of the compounds 2a and 2b.
The genotoxicity of the compounds was determined by Ames assay as previously described using the Ames MPF 98/100 mutagenicity test sample kit (Xenometrix AG, Allschwil, Switzerland). This test was performed with Salmonella typhimurium strains TA98 (frameshift mutations) and TA100 (base-pair substitutions). Compounds was prepared in six different concentrations (5, 2.5, 1.25, 0.625, 0.3125, 0.156 mg/mL) which was between […] and 5000 µg/mL according to the previous guidelines in DMSO. In order to detect mutagenic potential, test performed with and without Aroclor™-1254 induced male Sprague-Dawley rat liver microsomal enzyme (S9) mix (Xenometrix AG). While the positive control for TA 98 without S9 mix was 2-nitrofluorene (2 μg/mL), 1 μg/mL of 2-aminoanthracene was positive control with S9 against TA 98. For TA100, 4-nitroquinoline N-oxide (0.1 μg/mL) was positive control without S9 mix and 2.5 μg/mL of 2-aminoanthracene was positive control. 4% DMSO solution was the solvent control. At the end of the experiment, revertant bacteria decreased the pH of solution and indicator medium colour was changed to yellow. Yellow wells were counted as positive and compared with the negative control. Fold induction over the negative control and fold induction over the baseline were calculated. Fold induction over the negative control is the ratio of the mean number of positive wells for the dose concentration divided by the mean number of positive wells for the zero dose (negative) control. Fold induction over the baseline is the ratio of the mean number of positive wells for the dose concentration divided by zero dose baseline. The zero dose baseline is obtained by adding one standard deviation to the mean number of positive wells of the zero dose control. Mutagenity was determined according to the criteria from previous studies. For a baseline value ≤ 3, significant increases between 2 and 3-fold the baseline were classified as weak mutagen, increases ≥ 3-fold the baseline were classified as mutagen. For a baseline was > 3, significant increases between 1.5 and 2.5-fold the baseline were classified as weak mutagen, and increases ≥ 2.5-fold the baseline, were classified as mutagen. In principle, for a mutagenic compound, at least two adjacent doses with significant increase or a significant increase at the highest dose level should be observed. All doses were compared according to Student’s t-test at p < 0.05 as statistically.

[2] = biological target: T1, hMAO-B (Homo sapiens, UniProt P27338); assay: MAO-B inhibition assay (in vitro fluorometric Amplex Red method); assay type: biochemical; details: for inhibition at 1000 µM: 10^−3 M; for inhibition at 100 µM: 10^−4 M
T1 construct: purchased Sigma-Aldrich (Steinheim, Germany)
T1 sequence (P27338 1-520): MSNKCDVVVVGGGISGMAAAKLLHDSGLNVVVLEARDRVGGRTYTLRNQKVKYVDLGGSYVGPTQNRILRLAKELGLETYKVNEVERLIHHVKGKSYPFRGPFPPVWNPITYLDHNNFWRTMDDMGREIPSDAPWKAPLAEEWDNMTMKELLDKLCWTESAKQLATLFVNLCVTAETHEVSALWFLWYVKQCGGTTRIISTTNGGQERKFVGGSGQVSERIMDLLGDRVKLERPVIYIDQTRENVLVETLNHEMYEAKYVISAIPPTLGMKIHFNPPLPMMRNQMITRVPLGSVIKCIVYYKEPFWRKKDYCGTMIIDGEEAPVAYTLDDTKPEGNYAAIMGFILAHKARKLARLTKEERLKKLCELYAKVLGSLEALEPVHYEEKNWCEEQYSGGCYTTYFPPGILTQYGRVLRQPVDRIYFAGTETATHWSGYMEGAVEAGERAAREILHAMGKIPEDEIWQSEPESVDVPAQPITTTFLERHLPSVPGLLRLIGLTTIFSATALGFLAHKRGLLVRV

SMILES | Revertants Fold Increase (Over Baseline) ([1]; TA 98, S9+, 0.156 mg/mL) | Revertants Fold Increase (Over Baseline) ([1]; TA 98, S9+, 0.3125 mg/mL) | Revertants Fold Increase (Over Baseline) ([1]; TA 98, S9+, 0.625 mg/mL) | Revertants Fold Increase (Over Baseline) ([1]; TA 98, S9+, 1.25 mg/mL) | Revertants Fold Increase (Over Baseline) ([1]; TA 98, S9+, 2.5 mg/mL) | Revertants Fold Increase (Over Baseline) ([1]; TA 98, S9+, 5 mg/mL) | Revertants Fold Increase (Over Baseline) ([1]; TA 98, S9−, 0.156 mg/mL) | Revertants Fold Increase (Over Baseline) ([1]; TA 98, S9−, 0.3125 mg/mL) | Revertants Fold Increase (Over Baseline) ([1]; TA 98, S9−, 0.625 mg/mL) | Revertants Fold Increase (Over Baseline) ([1]; TA 98, S9−, 1.25 mg/mL) | Revertants Fold Increase (Over Baseline) ([1]; TA 98, S9−, 2.5 mg/mL) | Revertants Fold Increase (Over Baseline) ([1]; TA 98, S9−, 5 mg/mL) | mutagenicity classification against TA98 [1] | inhibition at 1000 µM [2] | inhibition at 100 µM [2] | Fold-inductions over baseline ([1]; TA98 without S9, all concentrations)
CC1CCCCN1c1ccc(/C=N/Nc2ccccc2)cc1 (centres unmarked) [Compound 2a, 1-(4-(2-Methypiperidin-1-yl)benzylidene)-2-phenylhydrazine] | 0.92 | 0.83 | 0.58 | 0.75 | 0.75 | 1.17 | 0.42 | 0.08 * | 0.58 | 0.50 | 0.08 * | 0.17 * | non-mutagenic | 35 ± 0.766% | 22.1 ± 0.443% | –
CN1CCN(c2ccc(C=NNc3ccccc3)cc2)CC1 [Compound 2b, 1-(4-(4-Methylpiperazine-1-yl)benzylidene)-2-phenylhydrazine] | 0.85 | – | – | 0.37 | 0.37 | 0.12 | 1.24 * | 0.36 | 0.22 | 0.00 | 0.00 | 0.00 | not classified as a mutagen | 63.7 ± 1.03% | 43 ± 1.2% | ≤ 1.5
